Columns and labels:
[1] = molecular target: T1, Receptor-type tyrosine-protein kinase FLT3 (Homo sapiens, UniProt P36888); assay: Inhibition of FLT3 (unknown origin) incubated for 40 mins in presence of ATP by Kinase-glo luminescent assay
T1 sequence (P36888 whole entry): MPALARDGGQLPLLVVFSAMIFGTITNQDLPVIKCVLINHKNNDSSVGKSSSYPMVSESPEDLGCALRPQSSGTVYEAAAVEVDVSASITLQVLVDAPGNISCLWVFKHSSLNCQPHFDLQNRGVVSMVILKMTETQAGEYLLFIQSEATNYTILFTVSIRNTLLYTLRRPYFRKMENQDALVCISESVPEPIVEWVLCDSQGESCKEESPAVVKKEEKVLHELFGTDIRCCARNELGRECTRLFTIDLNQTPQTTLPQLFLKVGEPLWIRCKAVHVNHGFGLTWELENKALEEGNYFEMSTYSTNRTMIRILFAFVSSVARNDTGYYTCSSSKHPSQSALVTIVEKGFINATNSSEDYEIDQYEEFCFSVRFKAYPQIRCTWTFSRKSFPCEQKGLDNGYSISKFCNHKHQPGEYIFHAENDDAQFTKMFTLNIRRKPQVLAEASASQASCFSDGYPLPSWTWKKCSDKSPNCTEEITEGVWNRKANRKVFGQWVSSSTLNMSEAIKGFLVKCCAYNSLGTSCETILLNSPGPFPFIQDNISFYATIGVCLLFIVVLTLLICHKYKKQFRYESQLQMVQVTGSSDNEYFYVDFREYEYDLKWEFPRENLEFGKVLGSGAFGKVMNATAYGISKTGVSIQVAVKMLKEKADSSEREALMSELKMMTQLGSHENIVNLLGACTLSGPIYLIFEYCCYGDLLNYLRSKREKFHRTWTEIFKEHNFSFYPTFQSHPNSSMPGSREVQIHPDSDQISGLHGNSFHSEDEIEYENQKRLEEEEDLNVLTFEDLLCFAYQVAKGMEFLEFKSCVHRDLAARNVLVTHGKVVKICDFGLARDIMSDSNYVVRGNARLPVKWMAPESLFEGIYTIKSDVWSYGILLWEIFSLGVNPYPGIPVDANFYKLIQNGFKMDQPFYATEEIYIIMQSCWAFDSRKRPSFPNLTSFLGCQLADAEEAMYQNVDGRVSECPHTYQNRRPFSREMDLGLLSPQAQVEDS

[2] = Metabolic stability in mouse liver microsomes assessed as intrinsic clearance in presence of NADPH by LC-MS/MS analysis; assay type: ADME, Microsome; settings: read-out: CLH
[3] = molecular target: T2, Tyrosine-protein kinase JAK3 (Homo sapiens, UniProt P52333); assay: Inhibition of JAK3 (unknown origin) incubated for 40 mins in presence of ATP by Kinase-glo luminescent assay
T2 sequence (P52333 whole entry): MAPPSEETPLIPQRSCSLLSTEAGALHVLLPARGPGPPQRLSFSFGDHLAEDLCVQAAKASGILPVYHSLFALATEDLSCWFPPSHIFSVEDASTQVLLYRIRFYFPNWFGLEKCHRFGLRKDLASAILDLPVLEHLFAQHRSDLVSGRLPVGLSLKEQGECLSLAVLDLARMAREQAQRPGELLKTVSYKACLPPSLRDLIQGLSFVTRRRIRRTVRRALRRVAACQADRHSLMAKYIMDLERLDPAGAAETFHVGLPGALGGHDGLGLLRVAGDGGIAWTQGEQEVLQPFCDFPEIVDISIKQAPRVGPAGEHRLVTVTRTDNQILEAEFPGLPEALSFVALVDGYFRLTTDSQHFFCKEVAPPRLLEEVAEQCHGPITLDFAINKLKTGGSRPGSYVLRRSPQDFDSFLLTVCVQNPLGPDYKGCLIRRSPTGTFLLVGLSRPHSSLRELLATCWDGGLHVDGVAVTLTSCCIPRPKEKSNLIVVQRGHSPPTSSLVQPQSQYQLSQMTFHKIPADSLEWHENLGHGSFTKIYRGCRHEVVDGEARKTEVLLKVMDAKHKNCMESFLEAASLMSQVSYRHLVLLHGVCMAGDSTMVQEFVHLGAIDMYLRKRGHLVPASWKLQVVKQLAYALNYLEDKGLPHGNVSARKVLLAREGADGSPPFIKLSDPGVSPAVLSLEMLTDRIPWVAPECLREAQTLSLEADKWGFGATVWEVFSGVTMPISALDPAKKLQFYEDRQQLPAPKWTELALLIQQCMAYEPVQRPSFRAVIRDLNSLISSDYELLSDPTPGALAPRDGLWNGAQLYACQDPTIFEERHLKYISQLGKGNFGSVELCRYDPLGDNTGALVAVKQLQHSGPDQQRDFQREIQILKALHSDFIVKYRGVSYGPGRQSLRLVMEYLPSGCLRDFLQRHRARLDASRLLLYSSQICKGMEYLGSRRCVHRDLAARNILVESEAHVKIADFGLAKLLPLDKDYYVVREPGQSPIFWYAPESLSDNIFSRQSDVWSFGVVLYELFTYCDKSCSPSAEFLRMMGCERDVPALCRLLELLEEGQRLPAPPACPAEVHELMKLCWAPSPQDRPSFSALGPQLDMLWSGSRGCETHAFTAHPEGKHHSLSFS

[4] = Cmax in ICR (CD-1) mouse at 50 mg/kg, ip measured for 24 hrs by LC-MS/MS analysis; assay type: ADME, organism-based; design: time 24 hrs, dose 50 mg/kg, route ip; settings: in vivo
Histone deacetylase 4 = Histone deacetylase 4 (Homo sapiens, UniProt P56524); assay: Inhibition of HDAC4 (unknown origin) using Boc-Lys-(trifluoroacetyl)-AMC as substrate incubated for 30 mins by fluorescence based analysis
Histone deacetylase 4, sequence (P56524 whole entry): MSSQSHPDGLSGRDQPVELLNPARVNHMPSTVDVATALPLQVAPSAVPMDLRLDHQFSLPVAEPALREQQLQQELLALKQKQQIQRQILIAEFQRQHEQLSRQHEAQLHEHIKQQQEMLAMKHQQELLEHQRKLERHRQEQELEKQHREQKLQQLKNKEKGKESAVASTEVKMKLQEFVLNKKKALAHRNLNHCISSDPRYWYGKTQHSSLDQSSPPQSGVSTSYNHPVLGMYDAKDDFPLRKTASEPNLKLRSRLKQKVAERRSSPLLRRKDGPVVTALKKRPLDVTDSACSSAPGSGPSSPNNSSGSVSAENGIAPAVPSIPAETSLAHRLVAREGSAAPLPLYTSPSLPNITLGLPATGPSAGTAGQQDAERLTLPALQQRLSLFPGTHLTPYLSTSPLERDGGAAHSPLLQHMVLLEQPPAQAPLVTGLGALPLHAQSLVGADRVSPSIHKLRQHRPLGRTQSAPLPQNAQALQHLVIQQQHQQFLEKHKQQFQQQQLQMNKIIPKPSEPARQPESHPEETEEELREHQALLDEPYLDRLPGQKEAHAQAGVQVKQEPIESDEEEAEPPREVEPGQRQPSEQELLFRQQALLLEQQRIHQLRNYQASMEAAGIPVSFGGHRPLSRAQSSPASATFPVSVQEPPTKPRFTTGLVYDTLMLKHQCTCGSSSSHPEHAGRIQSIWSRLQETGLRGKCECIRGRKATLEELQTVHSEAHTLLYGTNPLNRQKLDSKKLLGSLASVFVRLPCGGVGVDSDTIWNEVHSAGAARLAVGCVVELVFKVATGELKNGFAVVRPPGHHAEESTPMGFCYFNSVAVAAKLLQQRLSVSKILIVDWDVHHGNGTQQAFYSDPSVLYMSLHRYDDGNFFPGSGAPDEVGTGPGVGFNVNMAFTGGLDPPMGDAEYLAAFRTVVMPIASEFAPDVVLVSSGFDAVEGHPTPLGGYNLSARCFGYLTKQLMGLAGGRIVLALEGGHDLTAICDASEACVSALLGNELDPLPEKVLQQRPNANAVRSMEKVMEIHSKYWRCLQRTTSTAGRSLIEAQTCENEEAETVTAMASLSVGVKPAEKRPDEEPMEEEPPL

GES1 = assay: Cytotoxicity against human GES1 cells at 1 uM incubated for 48 hrs by MTT assay; assay type: toxicity, cell-based; settings: ges1, 48 h
[5] = MRT (0 to t) in ICR (CD-1) mouse at 10 mg/kg, iv measured for 24 hrs by LC-MS/MS analysis; assay type: ADME, organism-based; settings: in vivo
Histone deacetylase 11 = molecular target: T3, Histone deacetylase 11 (Homo sapiens, UniProt Q96DB2); assay: Inhibition of HDAC11 (unknown origin) using Ac-ETDKrnyr-AMC as substrate incubated for 30 mins by fluorescence based analysis
T3 sequence (Q96DB2 whole entry): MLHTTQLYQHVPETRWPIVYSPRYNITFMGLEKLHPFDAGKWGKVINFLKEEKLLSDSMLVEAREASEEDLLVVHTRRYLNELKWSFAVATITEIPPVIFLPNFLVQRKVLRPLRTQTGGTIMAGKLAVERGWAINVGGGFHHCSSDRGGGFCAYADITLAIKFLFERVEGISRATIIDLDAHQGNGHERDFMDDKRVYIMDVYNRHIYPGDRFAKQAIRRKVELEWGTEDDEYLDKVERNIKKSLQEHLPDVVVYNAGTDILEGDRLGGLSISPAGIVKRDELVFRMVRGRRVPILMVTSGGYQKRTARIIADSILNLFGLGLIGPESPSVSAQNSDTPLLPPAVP

[6] = AUC (0 to t) in ICR (CD-1) mouse at 50 mg/kg, ip measured for 24 hrs by LC-MS/MS analysis; assay type: ADME, organism-based; design: dose 50 mg/kg, time 24 hrs, route ip; settings: in vivo
[7] = Cmax in ICR (CD-1) mouse at 10 mg/kg, iv measured for 24 hrs by LC-MS/MS analysis; assay type: ADME, organism-based; design: time 24 hrs, dose 10 mg/kg, route iv; settings: in vivo

IC50 [1]: 10.9 nM
CLint scaled [2]: 146 mL/min/kg
IC50 [3]: 91 nM
Cmax [4]: 9560 ng/mL
IC50 (Histone deacetylase 4): > 5000 nM
MRT(t) [5]: 1.66 h
IC50 (Histone deacetylase 11): > 5000 nM
AUC(0-t) at 24 h [6]: 14800 ng·h/mL
Cmax [7]: 4730 ng/mL
Compound: Cc1cnc(Nc2ccc(OCCN3CCCC3)cc2)nc1Nc1ccc(C(=O)NO)cc1
Activity (GES1): Non-Toxic
